Drawing on PubChem BioAssay (NCI), this text covers TGI and GI50 for eleven molecules.

Values joined by “and” are separate entries in the source; they are usually repeats but may differ in a detail not shown here. Equal values may be shown once.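 How tested: cells in 96-well plates exposed to compound for 48 hours at five concentrations. GI50 = concentration required for 50% inhibition of growth. TGI marks complete inhibition of growth.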

Some test systems named below: CCRF-CEM leukemia; HCT-116 colon; HOP-62 NSCLC; LOX IMVI melanoma; RPMI-8226 leukemia; SF-268 CNS; SNB-75 CNS; UACC-62 melanoma; COLO 205 colon; MDA-MB-231 breast.
Experiment in all cases: NCI tumour cell line growth inhibition, 48 h

With `O=C(Nc1ccc([N+](=O)[O-])cc1C(=O)O)c1ccc([N+](=O)[O-])cc1`, the TGI was 26.9 µM with CCRF-CEM leukemia; 53.9 µM in the assay on HCT-116 colon; over 100 µM in the assay with HOP-62 NSCLC; over 100 µM with LOX IMVI melanoma; 57.7 µM with RPMI-8226 leukemia; over 100 µM in the assay with SF-268 CNS. In addition, the TGI in the assay on SNB-75 CNS and in the assay on UACC-62 melanoma was over 100 µM each time.
In the case of `Oc1ccccc1Nc1nc2ccccc2c2occc12`, the GI50 with COLO 205 colon was 13.3 µM; with HCT-116 colon, 14.3 µM; in the assay with HOP-62 NSCLC it was 7.69 µM; in the assay with LOX IMVI melanoma, 2.43 µM; with MDA-MB-231 breast, 10.1 µM; with RPMI-8226 leukemia, 9.11 µM. In addition, the GI50 in the assay on SF-268 CNS is 8.74 µM; in the assay with UACC-62 melanoma, 10.3 µM. Further, the TGI with COLO 205 colon was determined as 26 µM; in the assay with HCT-116 colon, 27.4 µM; in the assay with HOP-62 NSCLC it was 21.7 µM; in the assay with LOX IMVI melanoma, 9.39 µM; in the assay with MDA-MB-231 breast, 22.3 µM; in the assay on RPMI-8226 leukemia it was 57.8 µM. For the same molecule, the TGI was 28.6 µM in the assay on SF-268 CNS and 21.9 µM in the assay with UACC-62 melanoma.
For `CCC[CH2][Sn]1([CH2]CCC)[O]C(=O)c2cccc(OC)c2[O]1`, the GI50 in the assay with CCRF-CEM leukemia is 0.0261 µM; with COLO 205 colon, 0.491 µM; with HCT-116 colon, 0.494 µM; in the assay on HOP-62 NSCLC it was 2.27 µM; in the assay on LOX IMVI melanoma it was 0.161 µM; in the assay on SF-268 CNS, 0.194 µM. The GI50 with SNB-75 CNS is 0.112 µM; with UACC-62 melanoma, 0.312 µM. The TGI with COLO 205 colon is 1.78 µM; in the assay with HCT-116 colon, 1.69 µM; with HOP-62 NSCLC it was 3.75 µM; with LOX IMVI melanoma, 0.442 µM; with SF-268 CNS, 0.841 µM; in the assay with SNB-75 CNS, 1.26 µM. Further, in the assay on UACC-62 melanoma, the TGI was 1.18 µM.
`O=C1Nc2ccccc2/C1=C/c1cn(C(=O)c2c(Cl)cccc2Cl)c2ccccc12`: the GI50 in the assay on CCRF-CEM leukemia is 0.337 µM; in the assay on COLO 205 colon, 7.52 µM; in the assay on HCT-116 colon, 1.67 µM; in the assay with HOP-62 NSCLC it was 12.8 µM; in the assay with LOX IMVI melanoma, 1.59 µM; in the assay on MDA-MB-231 breast, 3.09 µM. The GI50 is 3.38 µM with RPMI-8226 leukemia, 2.38 µM in the assay on SF-268 CNS and 4.8 µM in the assay on UACC-62 melanoma. Moreover, the TGI in the assay on CCRF-CEM leukemia was determined as 15.6 µM; in the assay on COLO 205 colon, 22.2 µM; in the assay with HCT-116 colon it was 3.38 µM; with HOP-62 NSCLC, 40.4 µM; with LOX IMVI melanoma, 3.24 µM; in the assay with MDA-MB-231 breast, 16.8 µM. The TGI in the assay on RPMI-8226 leukemia is 23.6 µM; in the assay with SF-268 CNS, 10.6 µM; with UACC-62 melanoma it was 19.9 µM.
As for `COCOCc1cc(OCc2ccccc2)c(OC)cc1Br`, the TGI with CCRF-CEM leukemia, in the assay on COLO 205 colon, with HCT-116 colon, with HOP-62 NSCLC, in the assay with LOX IMVI melanoma and in the assay with RPMI-8226 leukemia was over 100 µM throughout. The TGI in the assay with SF-268 CNS, in the assay with SNB-75 CNS and in the assay on UACC-62 melanoma was over 100 µM throughout.
Take `Nc1nc(Cl)c(N=Nc2ccc(Cl)cc2)c(NCC2(CO)CC(OCc3ccccc3)C2)n1` (configuration not stated): the TGI was 51.5 µM and > 100 µM with CCRF-CEM leukemia; > 100 µM and 25.6 µM in the assay on COLO 205 colon; > 100 µM and 32.4 µM in the assay with HCT-116 colon; 49.4 µM and > 100 µM and 22.5 µM with HOP-62 NSCLC; 20.7 µM and > 100 µM and 11.3 µM in the assay on LOX IMVI melanoma; over 100 µM with RPMI-8226 leukemia. In addition, the TGI is 61.1 µM and > 100 µM and > 61 µM in the assay on SF-268 CNS; 26.8 µM and > 29.1 µM and 25.5 µM in the assay on SNB-75 CNS; 55.2 µM and > 100 µM and 25.1 µM with UACC-62 melanoma. In addition, the GI50 is 27.9 µM and 33.7 µM and 6.17 µM with COLO 205 colon; 7.37 µM and 40.9 µM and 8.76 µM in the assay with HCT-116 colon; 2.04 µM and 18.1 µM and 2.72 µM in the assay with LOX IMVI melanoma; 7.56 µM and > 44.4 µM and 14.5 µM in the assay on RPMI-8226 leukemia; 4.55 µM in the assay on SNB-75 CNS.
On to `O=C(CC/C(CC(=O)c1ccc(Cl)cc1)=N/O)Nc1ccc(Cl)c(Cl)c1`, for which the TGI with CCRF-CEM leukemia, with COLO 205 colon, in the assay on HCT-116 colon, with HOP-62 NSCLC, in the assay on RPMI-8226 leukemia and with SF-268 CNS was over 100 µM each time. Moreover, the TGI with SNB-75 CNS and with UACC-62 melanoma was over 100 µM in each case.
Turning to `COc1ccc(/C(=N\O)c2cc(OC)c(OC)c(OC)c2)c(OC)c1N`, the GI50 was 3.54 µM in the assay on CCRF-CEM leukemia; 2.23 µM in the assay on COLO 205 colon; 2.82 µM in the assay with HCT-116 colon; 4.26 µM in the assay on HOP-62 NSCLC; 5.38 µM with LOX IMVI melanoma; 4.6 µM in the assay on MDA-MB-231 breast. Moreover, the results for the GI50 with RPMI-8226 leukemia and in the assay with SF-268 CNS were 4.44 µM and 6.5 µM, respectively. Also, the TGI was over 100 µM with CCRF-CEM leukemia; 6.5 µM with COLO 205 colon; over 100 µM in the assay on HCT-116 colon; over 100 µM with HOP-62 NSCLC; over 100 µM in the assay with LOX IMVI melanoma; over 100 µM with MDA-MB-231 breast. Further, the TGI in the assay with RPMI-8226 leukemia and in the assay with SF-268 CNS was over 100 µM throughout.
For the molecule `COC(=O)c1oc2c(O)c(OC)c(Br)cc2c1C`, the GI50 is 25 µM with CCRF-CEM leukemia; 22.5 µM in the assay on COLO 205 colon; 23.3 µM in the assay with HOP-62 NSCLC; 23.5 µM with LOX IMVI melanoma; 16.5 µM in the assay on MDA-MB-231 breast; 20.9 µM with RPMI-8226 leukemia. The GI50 is 31 µM with SF-268 CNS and 14.7 µM in the assay with UACC-62 melanoma. The TGI turned out to be 67.6 µM in the assay with CCRF-CEM leukemia; 48.3 µM in the assay on COLO 205 colon; 51.4 µM in the assay with HOP-62 NSCLC; 39.2 µM in the assay with LOX IMVI melanoma; 37 µM in the assay on MDA-MB-231 breast; 47.8 µM in the assay with RPMI-8226 leukemia. Further, the TGI is over 100 µM in the assay with SF-268 CNS and 30.7 µM with UACC-62 melanoma.
Consider `COc1ccc(NC(=O)COC(=O)c2cccc3c(=O)c4ccccc4[nH]c23)cc1`, for which the TGI in the assay on CCRF-CEM leukemia is 28 µM; in the assay with COLO 205 colon, 33.3 µM; in the assay on HCT-116 colon, 25.5 µM; in the assay with HOP-62 NSCLC, 55.1 µM; in the assay on LOX IMVI melanoma it was 28.3 µM; in the assay with SF-268 CNS it was 55.2 µM. The TGI came to 41.2 µM in the assay on SNB-75 CNS and 33.1 µM in the assay with UACC-62 melanoma.
Take `CCOP(=O)(OCC)/C(C#N)=C/c1ccc[nH]1`: the TGI with CCRF-CEM leukemia, in the assay with COLO 205 colon, in the assay on HCT-116 colon, in the assay on HOP-62 NSCLC, in the assay on LOX IMVI melanoma and in the assay with RPMI-8226 leukemia was over 100 µM throughout. Moreover, the TGI in the assay with SF-268 CNS, in the assay on SNB-75 CNS and in the assay with UACC-62 melanoma was over 100 µM throughout.
